# Patent publication US9915650B2, “Method of detection of cAMP and cGMP via a fluorophore and dequencher complex” (HOFFMANN-LA-ROCHE INC., priority 2006, dated 2018)
# Values joined by “and” are separate entries in the source; they are usually repeats but may differ in a detail not shown here. Equal entries are not always repeated. “Also recorded” adds a separate entry of the source. Where two headings read alike, the source gives them in different places.
# How the values were obtained:
# [1] = Solubility seen in the quenching plot (FIG. 5); assay type: physicochemical; settings: above ˜5 mM, PBS, deviation from linearity of I0/I plot
# From the text: I0/I: change in fluorescence intensity
# [2] = Quenching of ATTO655 by 8-AHA-cAMP (Stern-Vollmer plot); assay type: binding; settings: 20 nM ATTO655 in PBS, 30 min RT; linear region (up to 3.2 mM)
# Method: (§1) All fluorescence intensity measurements were carried out by means of a plate:vision fluorescence reader (Evotec Technologies GmbH, Schnackenburgallee 114, D-22525 Hamburg, Germany) equipped with a high pressure Xe arc lamp using for the measurements with MR121 an excitation filter at 630 nm (bandwidth 50 nm) and an emission filter at 695 nm (bandwidth 55 nm) and for the measurements with Atto 700 an excitation filter at 655 nm (bandwidth 50 nm) and an emission filter at 710 nm (bandwidth 40 nm). The fluorescent intensity was adjusted to about 60% of the maximal signal of the employed iCCD camera by using attenuation filters and varying exposure times. The lifetime measurements were performed by means of a plate:vision TRF reader (Evotec Technologies GmbH, Schnackenburgallee 114, D-22525 Hamburg, Germany) with an OPO system as light source (GWU Lasertechnik Vertriebsgesellschaft m.b.H., 50374 Erftstadt, Germany) tuned to 630 nm for excitation and the emission filter at 695 nm.
# (§2) 20 μl ATTO590 and ATTO655 respectively (in PBS, end concentration 20 nM) and 20 μl quencher (8-AHA-cAMP) in PBS (DMSO end concentration in the assay: 1.25%) were pipetted into a microtiter plate. Fluorescence and lifetime were measured after an incubation time of 30 minutes at RT. […] The association constant, Ks, was calculated from the linear region (up to 3.2 mM) of the plot.
# [3] = Quenching of free MR121 fluorescence by cyclic nucleotides and cAMP derivates (Stern-Volmer plot); assay type: binding; settings: for association constant, Ks, with MR121 / quenching of MR121 (decrease of fluorescence intensity, fluorescence lifetime): 20 nM MR121 in PBS, 30 min RT; for association constant, Ks, with MR121: calculated from linear region (up to 3.2 mM) of I0/I plot; for quenching of MR121 (decrease of fluorescence intensity, fluorescence lifetime): quencher 0-12.8 mM; for quenching of MR121 in low concentrations: concentrations up to 10 μM (range of cellular concentrations)
# Method: The fluorescent intensity was adjusted to about 60% of the maximal signal of the employed iCCD camera by using attenuation filters and varying exposure times.
# (§3) Fluorescence and lifetime were measured after an incubation time of 30 minutes at RT.
# In order to analyze the quenching mechanism, measurements of fluorescence intensity and fluorescence lifetime of free MR121 as a function of different molecules (Trp, cAMP, 2-AHA-cAMP, 8-AHA-cAMP, 8-ADOA-cAMP, 2′-AEC-cAMP, N-6-Aminohexyl-cAMP, 8-MBT-cAMP and 8-OH-cAMP, see FIG. 4, 5) were carried out.
# as §3
# In FIG. 5 the change in fluorescence intensity (I0/I) is plotted for all cAMP derivatives investigated.
# [4] = Quenching of ATTO590 by 8-AHA-cAMP (Stern-Vollmer plot); assay type: binding; settings: 20 nM ATTO590 in PBS, 30 min RT; linear region (up to 3.2 mM)
# Method: as §1, §2
# [5] = literature value for tryptophane; cited from earlier work
# [6] = target: anti-cAMP antibody; experiment: cAMP/cGMP standard curves: displacement of tracer from anti-cAMP antibody, fluorescence readout; assay type: binding, mouse
# [7] = test system: CHO-K1 cells; experiment: cAMP cellular assay, forskolin dose response curve; assay type: cell-based; settings: Cricetulus griseus, 0.5 h; CHO-K1, 10,000 cells/well, 1 mM IBMX, 30 min at 37° C.
# Method: Cell numbers from 2, 500 to 20, 000 cell/well were plated in 25 μl medium and incubated for 20 h at 37° C. The medium was removed and after adding 10 μl of PBS with 0.1% BSA and 1 mM IBMX the cells were incubated for 60 minutes at 37° C. 10 μl of forskolin dilutions in PBS+0.1% BSA+1 mM IBMX from 0.01 to 300 μM (final concentration in 20 μl assay volume) were added and incubated for another 30 minutes at 37° C.
# [8] = 20 nM MR121-2-AHA-cAMP tracer, 40 nM antibody, without cells (FIG. 14), read-out: IC50, comparison of standard curves for cAMP and cGMP
smiles,measurement,setting,value
"NCCCCCCNc1nc2c(N)ncnc2n1[C@@H]1O[C@@H]2COP(=O)(O)O[C@H]2[C@H]1O [8-AHA-cAMP, 8-(6-Aminohexyl)amino-cAMP]",solubility,[1],solubility problems
same,"association constant, Ks, with Atto655",[2],347 M⁻¹
same,"association constant, Ks, with MR121",[3],514 M⁻¹
same,"association constant, Ks, with Atto590",[4],282 M⁻¹
"Nc1ncnc2c1[nH]c(=O)n2C1OC2COP(=O)(O)OC2C1O (stereo not shown) [8-OH-cAMP, 8-Hydroxy-cAMP]","association constant, Ks, with MR121",[3],236 M⁻¹
"NCCCCCCNc1nc(N)c2ncn([C@@H]3O[C@@H]4COP(=O)(O)O[C@H]4[C@H]3O)c2n1 [2-AHA-cAMP, 2-(6-Aminohexyl)amino-cAMP]","association constant, Ks, with MR121",[3],512 M⁻¹
N[C@@H](Cc1c[nH]c2ccccc12)C(=O)O [tryptophane],"association constant Ks with MR121, reported in the literature",[5],~220 M⁻¹
same,"quenching of MR121 (decrease of fluorescence intensity, fluorescence lifetime)",[3],decrease in fluorescence intensity without a change in fluorescence lifetime
"NCCOCCOCCNc1nc2c(N)ncnc2n1[C@@H]1O[C@@H]2COP(=O)(O)O[C@H]2[C@H]1O [8-ADOA-cAMP, 8-(8-Amino-3,6-dioxaoctylamino)-cAMP]","association constant, Ks, with MR121",[3],475 M⁻¹
"Nc1nc2c(ncn2[C@@H]2O[C@@H]3COP(=O)(O)O[C@H]3[C@H]2O)c(=O)[nH]1 [cGMP, cyclic GMP]",IC50,[6]; [8],0.387 µM
same,"quenching of MR121 (decrease of fluorescence intensity, fluorescence lifetime)",[3],quenches MR121 at higher concentrations
same,quenching of MR121 in low concentrations,[3],neither cAMP nor cGMP quenches MR121; also recorded: neither cAMP nor cGMP quench the fluorophore
same,concentration at which the nucleotide has quenching capabilities,[3]; fluorophore quenching,≥ 1 mM
"Nc1ncnc2c1ncn2[C@@H]1O[C@@H]2COP(=O)(O)O[C@H]2[C@H]1O [cAMP, cyclic adenosine monophosphate]",IC50,"[6]; 5 nM Atto700-2-AHA-cAMP tracer, 5 nM antibody, without cells (FIG. 15), read-out: IC50, dose response curve with Atto700-2-AHA-cAMP tracer",0.048 µM
same,IC50,[6]; [8],0.134 µM
same,IC50,"[6]; 20 nM MR121-2-AHA-cAMP, 40 nM anti-cAMP antibody, 10'000 CHO-K1 cells/well, read-out: IC50, standard curve with cells",0.119 µM and 0.102 µM
same,IC50,"[6]; 20 nM MR121-2-AHA-cAMP, 40 nM anti-cAMP antibody, without cells (FIG. 8), read-out: IC50, standard curve without cells",0.109 µM
same,"quenching of MR121 (decrease of fluorescence intensity, fluorescence lifetime)",[3],no quenching at all
same,quenching of MR121 in low concentrations,[3],neither cAMP nor cGMP quenches MR121; also recorded: neither cAMP nor cGMP quench the fluorophore
"Nc1ncnc2c1nc(SCCCCS)n2[C@@H]1O[C@@H]2COP(=O)(O)O[C@H]2[C@H]1O [8-MBT-cAMP, 8-(4-Mercaptobutylthio)-cAMP]","association constant, Ks, with MR121",[3],758 M⁻¹
NCCCCCCNc1ncnc2c1ncn2[C@@H]1O[C@@H]2COP(=O)(O)O[C@H]2[C@H]1O [N-6-Aminohexyl-cAMP],"quenching of MR121 (decrease of fluorescence intensity, fluorescence lifetime)",[3],no quenching at all
C=C[C@@]1(C)CC(=O)[C@]2(O)[C@@]3(C)[C@@H](O)CCC(C)(C)[C@@H]3[C@H](O)[C@H](OC(C)=O)[C@@]2(C)O1 [forskolin],IC50,[7],3.7 µM
